Results: patent US9145415B2, “Nitrogen-containing heterocyclic compound or salt thereof” (FUJIFILM Corporation, priority 2012, dated 2015)
Like-named read-outs stand apart in the source and are kept apart here.

Key:
[1] = target: T1, human FLT3 protein (FLT3 (WT)) (Homo sapiens, UniProt P36888); assay: FLT3 inhibition test (FLT3 enzyme inhibition, time-resolved fluorescence of substrate peptide phosphorylation); assay type: biochemical; details: read-out: FLT3 (WT) enzyme inhibition activity
T1 construct: human FLT3 protein (intracellular region, 564 to 993 aa); GST; purchased Carna Biosciences; host or cells: baculovirus expression system
T1 sequence (P36888 564-993): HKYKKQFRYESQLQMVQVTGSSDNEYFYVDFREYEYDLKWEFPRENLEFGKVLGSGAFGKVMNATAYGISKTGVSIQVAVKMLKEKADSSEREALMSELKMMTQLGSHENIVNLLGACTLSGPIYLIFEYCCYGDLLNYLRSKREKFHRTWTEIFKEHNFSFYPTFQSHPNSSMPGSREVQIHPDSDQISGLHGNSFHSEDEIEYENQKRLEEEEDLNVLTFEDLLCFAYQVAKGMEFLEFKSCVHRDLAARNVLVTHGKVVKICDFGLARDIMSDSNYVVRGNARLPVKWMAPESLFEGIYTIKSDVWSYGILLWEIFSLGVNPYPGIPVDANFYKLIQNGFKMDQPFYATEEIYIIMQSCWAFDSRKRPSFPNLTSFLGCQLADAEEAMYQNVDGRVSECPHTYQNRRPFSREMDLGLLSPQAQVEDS
Outline: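 Wild-type human FLT3 (1.2 μg) pre-incubated with compound 15 min at 25° C in 100 mM HEPES pH 7.5, 10 mM MgCl2, 25 mM NaCl, 1 mM DTT. Reaction started with substrate peptide and ATP (final 50 μM), run 30 min at 25° C; phosphorylation read by time-resolved fluorescence.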

MV4-11 cells = assay: Leukemia cell proliferation inhibition test (ATPlite), MV4-11; assay type: cell-based; details: read-out: MV4-11 cell proliferation inhibition effect
Outline: (§1)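 Proliferation inhibition is quantified from total cellular ATP, measured by luciferase luminescence, after cells grow with compound for 72 hours. The GI50 is the concentration giving half the signal of the 0.1% DMSO control, fitted to a sigmoid curve from duplicate points.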

Molm-13 cells = assay: Leukemia cell proliferation inhibition test (ATPlite), Molm-13; assay type: cell-based; details: read-out: MOLM13 cell proliferation inhibition effect
Outline: as §1

[2] = GST-fused human FLT3 (564 to 993 aa), ATP 50 μM
[3] = Homo sapiens, MV4-11, 72 h, MV4-11, 72 hours culture, ATPlite, GI50 per method
[4] = Homo sapiens, MOLM-13, 72 h, Molm-13, 72 hours culture, ATPlite, GI50 per method

With CCCNc1nc(Nc2cccc(F)c2)ncc1C#CCCCNC(=O)[C@@H]1C[C@@H](F)CN1C(=O)/C=C/CN(C)C [Compound 7-47] the IC50 [1, 2] was less than 10 nM, the IC50 (MV4-11 cells; [3]) was less than 10 nM and the IC50 (Molm-13 cells; [4]) was less than 10 nM.
In the case of CCCNc1nc(NCCc2ccncc2)ncc1C(=O)Nc1cccc(NC(=O)CNC(=O)/C=C/CN2CC(C)NC(C)C2)c1 (stereo not drawn) [Compound 2-15], the IC50 [1, 2] is reported as less than 10 nM, the IC50 (MV4-11 cells; [3]) is reported as 100 to 1000 nM and the IC50 (Molm-13 cells; [4]) is reported as 100 to 1000 nM.
Work on CCCNc1nc(Nc2ccc(C(N)=O)cc2)ncc1C(=O)Nc1cccc(NC(=O)[C@H](C)N(C)C(=O)/C=C/C(C)N(C)C)c1 (stereo partly drawn) [Compound 4-14] yielded an IC50 [1, 2] of less than 10 nM, an IC50 (MV4-11 cells; [3]) of less than 10 nM and an IC50 (Molm-13 cells; [4]) of less than 10 nM.
Work on CCCNc1nc(Nc2cccc(F)c2)ncc1C#CCCCNC(=O)[C@@H]1CCCN1C(=O)/C=C/CN(C)C [Compound 7-45] yielded an IC50 [1, 2] of less than 10 nM, an IC50 (MV4-11 cells; MV4-11, 72 hours culture, ATPlite, GI50 per method) of less than 10 nM and an IC50 (Molm-13 cells; Molm-13, 72 hours culture, ATPlite, GI50 per method) of less than 10 nM.
CNc1nc(Nc2ccc(F)cc2)ncc1C#CCCCNC(=O)[C@@H]1C[C@H](F)CN1C(=O)/C=C/CN(C)C [Compound 7-80, (2S,4S)-1-((E)-4-(Dimethylamino)-2-butenoyl)-4-fluoro-N-(5-(2-((4-fluorophenyl)amino)-4-(methylamino)pyrimidin-5-yl)-4-pentyn-1-yl)pyrrolidine-2-carboxamide] showed an IC50 [1, 2] of less than 10 nM, an IC50 (MV4-11 cells; [3]) of less than 10 nM and an IC50 (Molm-13 cells; [4]) of less than 10 nM.
Compound CCCNc1nc(Nc2cnc3[nH]nc(C)c3c2)ncc1C#CCCCNC(=O)[C@H](C)N(C)C(=O)/C=C/CN(C)C [Compound 22-51, (S,E)-4-(Dimethylamino)-N-methyl-N-(1-((5-(2-((3-methyl-1H-pyrazolo[3,4-b]pyridin-5-yl)amino)-4-(propylamino)pyrimidin-5-yl)-4-pentyn-1-yl)amino)-1-oxopropan-2-yl)-2-butenamide] has an IC50 ([1]; FLT3 (WT)) of less than 10 nM, an IC50 (MV4-11 cells; Homo sapiens, MV4-11, MV4-11 cell) of less than 10 nM and an IC50 (Molm-13 cells; Homo sapiens, MOLM-13, MOLM13 cell) of less than 10 nM.
Compound CCCNc1nc(NCCc2ccncc2)ncc1C(=O)Nc1cccc(NC(=O)CCNC(=O)/C=C/CN(C)C)c1 [Compound 2-10] has an IC50 [1, 2] of less than 10 nM, an IC50 (MV4-11 cells; [3]) of 100 to 1000 nM and an IC50 (Molm-13 cells; [4]) of 100 to 1000 nM.
CNc1nc(Nc2ccc(F)cc2)ncc1C#CCCCNC(=O)[C@@H]1C[C@@H](F)CN1C(=O)/C=C/CN(C)C [Compound 7-81, (2S,4R)-1-((E)-4-(Dimethylamino)-2-butenoyl)-4-fluoro-N-(5-(2-((4-fluorophenyl)amino)-4-(methylamino)pyrimidin-5-yl)-4-pentyn-1-yl)pyrrolidine-2-carboxamide] showed an IC50 [1, 2] of less than 10 nM, an IC50 (MV4-11 cells; [3]) of less than 10 nM and an IC50 (Molm-13 cells; [4]) of less than 10 nM.
